12 compounds from ChEMBL document CHEMBL1147517, “Potent and selective inhibitors of bacterial methionyl tRNA synthetase derived from an oxazolone-dipeptide scaffold” (Bioorg Med Chem Lett, 2004) can be followed below.

One may read the IC50 as the point on the concentration scale where inhibition reaches its midpoint. As a reminder, the inhibition is the relative decrease from the control value, in per cent.

Assay [1] concerns the target T1, Methionine--tRNA ligase, cytoplasmic (Homo sapiens, UniProt P56192).
T1 sequence (P56192 whole entry): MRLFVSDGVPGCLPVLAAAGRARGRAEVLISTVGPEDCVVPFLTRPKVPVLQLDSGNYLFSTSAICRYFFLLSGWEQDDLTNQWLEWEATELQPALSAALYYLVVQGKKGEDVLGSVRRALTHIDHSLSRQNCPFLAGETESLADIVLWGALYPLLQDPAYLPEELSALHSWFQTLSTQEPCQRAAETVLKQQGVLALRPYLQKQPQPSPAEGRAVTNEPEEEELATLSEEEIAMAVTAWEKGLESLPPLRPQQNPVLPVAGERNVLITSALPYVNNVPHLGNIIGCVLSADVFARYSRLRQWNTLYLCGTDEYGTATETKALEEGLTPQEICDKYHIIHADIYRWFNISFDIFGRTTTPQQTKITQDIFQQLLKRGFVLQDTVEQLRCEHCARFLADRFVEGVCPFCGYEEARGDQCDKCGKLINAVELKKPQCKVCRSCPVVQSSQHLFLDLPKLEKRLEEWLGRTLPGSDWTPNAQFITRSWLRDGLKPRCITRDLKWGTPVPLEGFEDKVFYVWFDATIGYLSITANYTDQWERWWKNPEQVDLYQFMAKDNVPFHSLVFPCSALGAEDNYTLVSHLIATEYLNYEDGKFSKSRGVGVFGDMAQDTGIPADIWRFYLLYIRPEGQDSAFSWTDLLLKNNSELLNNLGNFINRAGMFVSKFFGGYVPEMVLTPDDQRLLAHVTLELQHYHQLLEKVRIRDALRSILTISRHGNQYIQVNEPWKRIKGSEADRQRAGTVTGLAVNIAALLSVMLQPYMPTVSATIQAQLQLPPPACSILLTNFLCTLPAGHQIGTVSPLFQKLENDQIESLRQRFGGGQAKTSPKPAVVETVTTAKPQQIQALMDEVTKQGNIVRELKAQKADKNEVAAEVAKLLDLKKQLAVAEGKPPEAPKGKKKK
The assay is described as follows: Inhibition of human methionyl-tRNA synthetase (fMetRS).

The target of assay [2] is T2, Methionine--tRNA ligase, cytoplasmic (Homo sapiens) (UniProt P56192).
T2 sequence (whole entry): T1 sequence (P56192 whole entry)
Nature of the assay: Inhibition of human methionyl-tRNA synthetase (fMetRS) at the concentration of 10 uM.

Assay [3] deals with Methionine--tRNA ligase (Enterococcus faecalis). The assay is described as follows: Inhibition of Enterococci faecalis methionyl-tRNA synthetase (EfMetRS) at the concentration of 10 uM.
Assay [4] has as its system Methionine--tRNA ligase (Staphylococcus aureus). The assay is described as follows: Inhibition of Staphylococcus aureus methionyl-tRNA synthetase (SaMetRS) at the concentration of 10 uM.
In assay [5] the test system is Methionine--tRNA ligase (Enterococcus faecalis). The assay is described as follows: Inhibition of Enterococci faecalis methionyl-tRNA synthetase (EfMetRS); Inactive.

Take `NC(=O)[C@H](Cc1ccc(O)cc1)NC(=O)[C@@H]1CCN1/C=C1\N=C(c2ccc(Br)cc2)OC1=O`: in assay [1], the half-maximal inhibitory concentration (IC50) was more than 100 µM.

`NC(=O)[C@H](Cc1ccc(O)cc1)NC(=O)[C@@H]1CCCN1/C=C1\N=C(c2ccc(Cl)cc2Cl)OC1=O` gave an IC50 in assay [1] of more than 100 µM.

`CCC/C(=C1/N=C(c2ccc(Br)cc2)OC1=O)N1CCC[C@H]1C(=O)N[C@@H](Cc1ccc(O)cc1)C(N)=O` showed an IC50 in assay [1] of more than 100 µM.

In turn, `NC(=O)[C@H](Cc1ccc(O)cc1)NC(=O)[C@@H]1CCCN1/C=C1\N=C(c2ccc(Br)cc2)OC1=O` showed an inhibition in assay [2] of 5%.

As for `NC(=O)[C@H](Cc1ccc(O)cc1)NC(=O)C1CCCN(/C=C2\N=C(c3ccc(Cl)cc3Cl)OC2=O)C1` (some centres undefined), the inhibition in assay [2] is 20%; in assay [3] it was 2%; in assay [4], 43%.

Consider `NC(=O)[C@H](Cc1ccc(O)cc1)NC(=O)C1CCCN(/C=C2\N=C(c3ccc(Br)cc3)OC2=O)C1` (some centres undefined), for which the inhibition was 23% in assay [2] and 39% in assay [4]. The IC50 result in assay [5] is on record as “Not Active”.

On to `NC(=O)[C@H](Cc1ccc(O)cc1)NC(=O)C1CCCCN1/C=C1\N=C(c2ccc(Br)cc2)OC1=O` (some centres undefined), for which the inhibition in assay [2] stood at 19%; in assay [3], 7%; in assay [4], 55%.

As for `NC(=O)[C@H](Cc1ccc(O)cc1)NC(=O)C1CCN(/C=C2\N=C(c3ccc(Cl)cc3Cl)OC2=O)CC1`, the inhibition in assay [2] was found to be 5%; in assay [3], 5%; in assay [4], 3%.

Regarding `NC(=O)[C@H](Cc1ccc(O)cc1)NC(=O)C1CCCCN1/C=C1\N=C(c2ccc(Cl)cc2Cl)OC1=O` (some centres undefined), the inhibition in assay [2] was found to be 88%; in assay [3], 60%; in assay [4] it was 73%.

Turning to `CCC/C(=C1/N=C(c2ccc(Br)cc2)OC1=O)N1CC[C@H]1C(=O)N[C@@H](Cc1ccc(O)cc1)C(N)=O`, the IC50 in assay [1] was more than 100 µM.

In the case of `NC(=O)[C@H](Cc1ccc(O)cc1)NC(=O)C1CCN(/C=C2\N=C(c3ccc(Br)cc3)OC2=O)CC1`, the inhibition in assay [2] is 6%; in assay [3], 7%; in assay [4], 1%.

`CC/C(=C1/N=C(c2ccc(Br)cc2)OC1=O)N1CCC[C@H]1C(=O)N[C@@H](Cc1ccc(O)cc1)C(N)=O` registered an IC50 in assay [1] of more than 100 µM.
